# Source: US20190201419A1, “COMPOUND AND METHOD FOR THE TREATMENT AND DIAGNOSIS OF NEURODEGENERATIVE CONDITIONS” (Swansea University, priority 2013, published 2019)
# Legend:
# [1] = molecular target: T1, Lxrα (Homo sapiens, UniProt Q13133); assay: Lxrα luciferase reporter assay in SN4741 neural cells; type: cell-based, mouse; settings: for Lxrα activation, luciferase activity (fold activation): 10 μM, 24 h
# T1 construct: expressed in transfected cells; host or cells: SN4741 mouse neuronal cell line
# T1 sequence (Q13133 1-447): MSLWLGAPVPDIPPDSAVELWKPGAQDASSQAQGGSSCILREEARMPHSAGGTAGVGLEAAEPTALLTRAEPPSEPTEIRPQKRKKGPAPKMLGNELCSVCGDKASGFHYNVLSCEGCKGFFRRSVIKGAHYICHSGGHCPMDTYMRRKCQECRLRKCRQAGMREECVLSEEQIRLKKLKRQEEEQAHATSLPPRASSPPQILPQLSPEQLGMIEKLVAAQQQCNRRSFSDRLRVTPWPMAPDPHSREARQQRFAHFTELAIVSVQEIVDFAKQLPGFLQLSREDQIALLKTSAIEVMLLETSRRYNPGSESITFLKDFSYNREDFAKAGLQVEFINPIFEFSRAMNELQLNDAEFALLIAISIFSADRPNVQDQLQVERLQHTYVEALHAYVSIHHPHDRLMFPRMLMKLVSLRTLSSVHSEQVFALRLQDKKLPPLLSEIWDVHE
# Excerpt: (§1) Luciferase Reporter Assay.
# [2] = molecular target: T2, Lxrβ (Homo sapiens, UniProt P55055); assay: Lxrβ luciferase reporter assay in SN4741 neural cells; type: cell-based, mouse; settings: SN4741 cells, 10 μM, 24 h
# T2 construct: expressed in transfected cells; host or cells: SN4741 mouse neuronal cell line
# T2 sequence (P55055 1-460): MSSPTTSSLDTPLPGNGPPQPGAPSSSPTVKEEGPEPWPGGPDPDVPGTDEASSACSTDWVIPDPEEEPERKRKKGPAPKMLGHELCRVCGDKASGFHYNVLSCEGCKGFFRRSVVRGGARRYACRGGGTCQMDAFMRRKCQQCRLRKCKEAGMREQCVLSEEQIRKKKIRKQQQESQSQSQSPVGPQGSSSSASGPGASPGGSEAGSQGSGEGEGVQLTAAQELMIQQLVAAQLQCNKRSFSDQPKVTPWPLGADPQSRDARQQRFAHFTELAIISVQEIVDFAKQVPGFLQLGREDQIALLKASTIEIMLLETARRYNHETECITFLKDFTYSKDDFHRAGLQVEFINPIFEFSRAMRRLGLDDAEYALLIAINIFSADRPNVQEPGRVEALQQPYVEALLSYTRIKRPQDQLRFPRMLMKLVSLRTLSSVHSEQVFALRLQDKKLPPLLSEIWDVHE
# Excerpt: as §1
# [3] = test system: Islet-1; assay: Islet-1 expression in Tg[Isl1:GFP] zebrafish embryos; type: in vivo; settings: 10 μM, embryos 48 hpf
# Experimental: Quantitative PCR, Total RNA was extracted from SN4741. cells and zebrafish treated with the compounds of interest using the RNeasy Mini Kit (Qiagen), 1 μg was treated with RQ1 RNase-free DNase (Promega) and reverse transcribed using SuperScript II Reverse Transcriptase (invitrogen) and random primers (invitrogen) (RT+reaction). Parallel reactions without reverse transcriptase enzyme were done as a control (RT−reaction), and Sybergreen real-time quantitative PCR assays were performed. Expression levels were obtained by normalization with the Value of the housekeeping gene encoding actin obtained for every sample in parallel assays.
# (§2) Zebrafish Strain and Maintenance Zebrafish were raised on a 14/10 h day/night cycle and were kept at 28.5 ° C. Islet-1:GFP transgenic embryos were obtained via natural spawning and staged in hours or days post fertilization (hpf and dpt) according to Kimmel et al). Embryos older than 24 hpf were treated with 0.03% phenylthiourea (PTU) to inhibit pigmentation. MO injections were performed using splice site specific zebrafish lxi MO MO injected embryos were immediately dechorionated and transferred to a 96 well plate and exposed to dimethyl sulfoxide (DMSO) treated or ligand treated medium. Compound Exposure. Islet-1:GFP embryos were collected by natural mating and immediately (at 1 cell stage) dechorionated and transferred to a 96 well plate. Each of the compounds tested were obtained as 10 mM stock and diluted in embryo medium to a final concentration of 10 μM, and 200 μL was added to each well. DMSO or propan-2-ol treated embryo medium was taken as control. Ligand solutions were replaced every 12 h with fresh ligand solution prepared in PTU treated embryo medium. Embryos were collected at 48 hpf, fixed for 4 h at room temperature with 4% paraformaldehyde and then washed and kept in PBST. Immunocytochemistry was performed using an anti-GFP antibody and fluorescence was viewed and photographed using a Zeiss Axioplan compound microscope and a Zeiss Axiocam digital camera.
# [4] = test system: Islet1+ oculomotor neurons; assay: Islet1+ cells in mouse E11.5 brain primary cultures; type: cell-based; settings: wild type cultures
# Experimental: Primary Brain Cultures. Brains from E11.5 mice were manually dissected, plated on poly-D-lysine (150,000 cells/cm^2) and grown in serum-free N2 media consisting of 1:1 mixture of F12 and DMEM with 10 ng/mL insulin, 100 μg/mL apo-transferrin, 100 μM putrescine, 20 nM progesterone, 30 nM selenium, 6 mg/mL glucose, and 1 mg/mL BSA. Cells were treated for 3 days in vitro (DIV) with the compounds of interest, fixed with 4% PFA and processed for staining using appropriate antibodies.
# Antibodies and Detection Procedures. Cells were fixed in 4% PFA, washed in PBS and blocked in 5% normal goat serum/PBS for 1 h at room temperature. Primary antibodies were diluted in PBS (pH 7.4), 0.3% Triton X-100, 1% BSA and incubations were carried out overnight at +4° C. or at room temperature for 2 h. The antibodies used were anti-:BrdU (1:400; Abeam), Islet-1 (1:100: Developmental Studies Hybridoma Bank), cleaved caspase-3 (Aspt 75) (1:100; Cell Signaling Technology), tyrosine hydroxylase (TH; 1:1000; Pel-Freeze) GABA (1:1,000; Sigma), Bm3a (1:250; Millipore), Nkx6.1 (1:200; Novus Biologicals), choline acetyltransferase (ChAT; 1:500; Millipore) and appropriate secondary antibodies (Jackson ImmunoResearch or Alexa). Cells positive for the corresponding marker were counted directly at the microscope at a magnification of 20×. Cells were counted in every well, in eight consecutive fields (going from one side of the well to the other, passing through the center), in three different wells per experiment and in three different experiments per condition. Random pictures of the wells were taken for every condition to document the result, and representative pictures were subsequently selected to represent the quantitative data. Photos were acquired with a Zeiss Axioplan microscope and a Hamamatsu camera C4742-95 using the Openlab software.
# [5] = test system: zebrafish embryos; assay: Survival of transgenic zebrafish embryos on compound exposure; type: in vivo
# Experimental: as §2
SMILES,"Lxrα activation, luciferase activity (fold activation) [1]","Lxrβ activation, luciferase activity (fold activation) [2]",other results
CC(C)CCC[C@@H](C)[C@H]1CC[C@H]2[C@@H]3CC[C@H]4CC(=O)CC[C@]4(C)[C@H]3CC[C@]12C [5α-cholestan-3-one],None of these compounds showed significant activity,–,–
CC(C)CCC[C@@H](C)[C@H]1CC[C@H]2[C@@H]3CC[C@H]4C[C@@H](O)CC[C@]4(C)[C@H]3CC[C@]12C [5α-cholestan-3β-ol],None of these compounds showed significant activity,–,–
"CC(C)CCC[C@@H](C)[C@H]1CC[C@H]2[C@@H]3[C@H](O)CC4=CC(=O)CC[C@]4(C)[C@H]3C[C@H](O)[C@]12C [7α,12α-diHCO, 7α,12α-Dihydroxycholest-4-en-3-one]",None of these compounds showed significant activity,–,–
"CC(CO)CCC[C@@H](C)[C@H]1CC[C@H]2[C@@H]3[C@H](O)C=C4C[C@@H](O)CC[C@]4(C)[C@H]3CC[C@]12C (stereo partly drawn) [7α,26-diHC, 7α,26-dihydroxycholesterol]",none of which was found to show significant activity,none of which was found to show significant activity,–
"CC(CO)CCC[C@@H](C)[C@H]1CC[C@H]2[C@@H]3[C@H](O)CC4=CC(=O)CC[C@]4(C)[C@H]3CC[C@]12C (stereo partly drawn) [7α,26-diHCO, 7α,26-dihydroxycholest-4-en-3-one]",none of which was found to show significant activity,none of which was found to show significant activity,–
"CC(C)CCC[C@@H](C)[C@H]1CC[C@H]2[C@@H]3[C@H](O)CC4=CC(=O)CC[C@]4(C)[C@H]3CC[C@]12C [7α-HCO, 7α-Hydroxycholest-4-en-3-one]",None of these compounds showed significant activity,–,–
"CC(CCC[C@@H](C)[C@H]1CC[C@H]2[C@@H]3[C@H](O)CC4=CC(=O)CC[C@]4(C)[C@H]3CC[C@]12C)C(=O)O (stereo partly drawn) [7αH,3O-CA, 7α-hydroxy-3-oxocholest-4-en-26-oic acid]",none of which was found to show significant activity,none of which was found to show significant activity,Islet-GFP expression [3]: failed to regulate Islet-GFP expression
"CC(CCC[C@@H](C)[C@H]1CC[C@H]2[C@@H]3[C@@H](O)CC4=CC(=O)CC[C@]4(C)[C@H]3CC[C@]12C)C(=O)O (stereo partly drawn) [7βH,3O-CA, 7β-hydroxy-3-oxocholest-4-en-26-oic acid]",none of which was found to show significant activity,none of which was found to show significant activity,–
"CC(C)CC[C@@H](O)[C@@H](C)[C@H]1CC[C@H]2[C@@H]3CC=C4C[C@@H](O)CC[C@]4(C)[C@H]3CC[C@]12C [22R-HC, 22R-hydroxycholesterol, reference compound]",–,–,Lxr luciferase activity with addition of the Lxr antagonist GGPP ([1]; 10 μM metabolite + 10 μM GGPP): similarly blocked; Number of Islet1+ cells [4]: does not show an effect towards Islet1+ cells
"CC(C)[C@@H](O)CC[C@@H](C)[C@H]1CC[C@H]2[C@@H]3CC=C4C[C@@H](O)CC[C@]4(C)[C@H]3CC[C@]12C [24S-HC, cholest-5-ene-3β,24S-diol]",activate Lxr,activate Lxr,–
"C[C@@H](CO)CCC[C@@H](C)[C@H]1CC[C@H]2[C@@H]3CC=C4C[C@@H](O)CC[C@]4(C)[C@H]3CC[C@]12C [26-HC, cholest-(25R)-5-en-3β,26-diol]",had no a significant effect,had no a significant effect,Number of Islet1+ cells [4]: no effect on the number of Islet1+ cells
"C[C@H](CCC(=O)O)[C@H]1CC[C@H]2[C@@H]3[C@H](O)C[C@@H]4C[C@H](O)CC[C@]4(C)[C@H]3CC[C@]12C [CDCA, chenodeoxycholic acid, reference compound]",–,–,Toxic effect on survival of the fish [5]: had a deleterious toxic effect which impaired the survival of the fish
CC(C)CCC[C@@H](C)[C@H]1CC[C@H]2[C@@H]3CCC4=CC(=O)CC[C@]4(C)[C@H]3CC[C@]12C [cholest-4-en-3-one],None of these compounds showed significant activity,–,–
"CC(C)CCC[C@@H](C)[C@H]1CC[C@H]2[C@@H]3C=CC4=CC(=O)CC[C@]4(C)[C@H]3CC[C@]12C [cholesta-4,6-dien-3-one]",None of these compounds showed significant activity,–,–
